The text below walks through data of patent publication US20230150974A1 (Foghorn Therapeutics Inc., priority 2020, published 2023).

For one assay, the target named is T1, HiBiT-BRM (Homo sapiens, UniProt P51531).
T1 construct: expressed in transfected cells
Kind of assay: HiBiT-BRM cell-based degradation assay (Nano-Glo HiBiT Lytic Detection). The note with it: HeLa cells expressing HiBiT-BRM, 24 h; for DC50: read-out: BRM HiBit Degradation IC50. In short, it runs like this:
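HeLa cells stably expressing HiBiT-tagged BRM were treated for 24 h, then lysed with LgBiT-containing Nano-Glo reagent and luminescence read. % degradation scaled between DMSO (high control) and 2 μM reference BRM/BRG1 degrader (low control).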

For a further assay, the target named is T2, HiBit-BRG1 (Homo sapiens, UniProt P51532).
T2 construct: expressed in transfected cells
T2 sequence (P51532 whole entry): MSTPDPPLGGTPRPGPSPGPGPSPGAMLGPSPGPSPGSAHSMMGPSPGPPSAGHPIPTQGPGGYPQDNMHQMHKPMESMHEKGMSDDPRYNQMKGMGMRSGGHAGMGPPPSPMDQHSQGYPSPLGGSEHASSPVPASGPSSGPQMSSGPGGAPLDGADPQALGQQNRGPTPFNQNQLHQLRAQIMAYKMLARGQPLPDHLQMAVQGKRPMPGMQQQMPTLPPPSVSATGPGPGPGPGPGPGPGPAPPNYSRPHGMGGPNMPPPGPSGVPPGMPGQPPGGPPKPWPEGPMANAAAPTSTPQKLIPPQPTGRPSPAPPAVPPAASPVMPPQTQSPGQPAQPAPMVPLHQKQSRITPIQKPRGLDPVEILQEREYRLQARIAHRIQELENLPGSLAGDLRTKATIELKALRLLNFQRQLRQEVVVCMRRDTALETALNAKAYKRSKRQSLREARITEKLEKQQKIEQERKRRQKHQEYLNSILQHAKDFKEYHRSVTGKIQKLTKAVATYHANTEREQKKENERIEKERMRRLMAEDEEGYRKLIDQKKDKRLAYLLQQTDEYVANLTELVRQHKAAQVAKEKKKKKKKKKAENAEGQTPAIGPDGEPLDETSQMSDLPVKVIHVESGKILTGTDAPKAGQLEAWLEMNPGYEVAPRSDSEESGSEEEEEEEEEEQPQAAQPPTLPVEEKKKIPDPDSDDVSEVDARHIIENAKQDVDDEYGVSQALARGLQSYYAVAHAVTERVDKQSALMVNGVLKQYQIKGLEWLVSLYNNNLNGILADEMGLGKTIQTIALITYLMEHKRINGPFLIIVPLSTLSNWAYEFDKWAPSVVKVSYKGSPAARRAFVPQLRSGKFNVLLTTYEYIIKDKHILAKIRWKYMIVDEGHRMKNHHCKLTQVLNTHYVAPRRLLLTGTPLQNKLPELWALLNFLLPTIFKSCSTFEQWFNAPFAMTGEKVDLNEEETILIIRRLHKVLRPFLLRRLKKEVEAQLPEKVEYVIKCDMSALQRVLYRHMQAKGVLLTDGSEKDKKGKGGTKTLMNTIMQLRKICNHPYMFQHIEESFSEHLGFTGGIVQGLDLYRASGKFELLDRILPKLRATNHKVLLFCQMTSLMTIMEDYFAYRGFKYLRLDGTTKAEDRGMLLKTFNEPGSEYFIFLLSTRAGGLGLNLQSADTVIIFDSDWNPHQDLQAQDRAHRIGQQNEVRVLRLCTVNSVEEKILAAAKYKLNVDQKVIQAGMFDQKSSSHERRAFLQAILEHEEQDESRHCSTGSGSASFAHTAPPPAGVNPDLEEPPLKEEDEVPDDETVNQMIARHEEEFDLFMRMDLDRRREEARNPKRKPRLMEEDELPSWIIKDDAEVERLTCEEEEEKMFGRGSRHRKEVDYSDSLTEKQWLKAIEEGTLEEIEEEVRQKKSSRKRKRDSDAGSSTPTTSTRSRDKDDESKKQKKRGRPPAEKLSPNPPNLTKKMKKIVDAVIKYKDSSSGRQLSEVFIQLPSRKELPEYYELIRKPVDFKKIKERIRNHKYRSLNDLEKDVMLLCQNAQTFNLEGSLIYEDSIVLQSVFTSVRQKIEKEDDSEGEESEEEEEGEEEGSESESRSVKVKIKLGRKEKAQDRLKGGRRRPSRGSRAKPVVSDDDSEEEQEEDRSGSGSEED
As to the kind of experiment: HiBit-BRG1 cell-based degradation assay (Nano-Glo HiBiT Lytic Detection). The settings on record: HeLa cells expressing HiBit-BRG1 and LgBit, 24 h; for DC50: read-out: BRG1 HiBit Degradation IC50; for Dmax: read-out: BRG1 HiBit Degradation Maximum (%). In short, it runs like this:
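HeLa cells stably expressing HiBiT-BRG1 plus LgBit, 5000/well, treated 24 h, then lysed with Nano-Glo HiBiT lytic reagent and luminescence read. % degradation normalised between DMSO (high control) and 2 μM reference BRM/BRG1 degrader (low control).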

Where a name gives a salt, the structure may show the parent alone.

T1 sequence (P51531 whole entry): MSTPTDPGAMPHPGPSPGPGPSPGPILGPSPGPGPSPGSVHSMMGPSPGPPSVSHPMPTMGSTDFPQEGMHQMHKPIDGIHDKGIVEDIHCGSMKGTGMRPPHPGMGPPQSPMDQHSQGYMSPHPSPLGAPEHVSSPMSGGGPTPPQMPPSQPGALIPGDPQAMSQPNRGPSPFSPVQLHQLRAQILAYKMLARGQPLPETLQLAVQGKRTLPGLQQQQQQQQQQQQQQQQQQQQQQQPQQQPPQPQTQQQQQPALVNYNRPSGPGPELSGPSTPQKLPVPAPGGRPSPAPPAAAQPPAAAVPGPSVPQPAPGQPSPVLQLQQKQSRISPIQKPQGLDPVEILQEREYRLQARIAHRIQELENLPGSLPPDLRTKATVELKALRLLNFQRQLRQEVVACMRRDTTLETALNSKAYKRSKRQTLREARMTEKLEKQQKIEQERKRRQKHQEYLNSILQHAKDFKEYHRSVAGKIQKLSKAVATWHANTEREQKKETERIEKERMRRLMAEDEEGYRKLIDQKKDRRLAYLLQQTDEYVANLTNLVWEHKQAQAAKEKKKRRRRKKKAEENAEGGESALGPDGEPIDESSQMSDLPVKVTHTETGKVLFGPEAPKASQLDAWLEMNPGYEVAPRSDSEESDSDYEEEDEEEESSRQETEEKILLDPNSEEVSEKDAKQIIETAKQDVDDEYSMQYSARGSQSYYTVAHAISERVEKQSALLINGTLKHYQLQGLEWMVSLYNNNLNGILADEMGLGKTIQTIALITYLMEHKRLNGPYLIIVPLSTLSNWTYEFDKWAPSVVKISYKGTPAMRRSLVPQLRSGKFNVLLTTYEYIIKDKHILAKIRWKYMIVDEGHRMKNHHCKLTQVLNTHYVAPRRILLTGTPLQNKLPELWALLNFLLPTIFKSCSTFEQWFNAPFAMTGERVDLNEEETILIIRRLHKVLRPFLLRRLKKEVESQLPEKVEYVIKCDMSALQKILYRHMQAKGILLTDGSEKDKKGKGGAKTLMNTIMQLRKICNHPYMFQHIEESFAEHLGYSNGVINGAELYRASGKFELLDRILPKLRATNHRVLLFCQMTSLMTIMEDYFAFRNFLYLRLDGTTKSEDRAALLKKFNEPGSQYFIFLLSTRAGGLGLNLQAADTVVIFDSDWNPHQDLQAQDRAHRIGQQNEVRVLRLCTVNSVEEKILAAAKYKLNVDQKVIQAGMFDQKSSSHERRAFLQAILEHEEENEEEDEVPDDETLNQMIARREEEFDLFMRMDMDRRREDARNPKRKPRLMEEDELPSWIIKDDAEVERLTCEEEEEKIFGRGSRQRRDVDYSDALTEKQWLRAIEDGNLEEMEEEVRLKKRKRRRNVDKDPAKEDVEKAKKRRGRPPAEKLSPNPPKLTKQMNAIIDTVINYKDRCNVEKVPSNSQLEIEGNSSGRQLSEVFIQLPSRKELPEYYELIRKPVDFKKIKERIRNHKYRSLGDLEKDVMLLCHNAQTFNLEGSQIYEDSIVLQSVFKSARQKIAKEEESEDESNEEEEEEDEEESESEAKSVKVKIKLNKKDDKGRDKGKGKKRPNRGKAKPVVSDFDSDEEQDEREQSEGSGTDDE

For the compound `Nc1nnc(-c2cc(F)ccc2O)cc1OCCc1ccc(CNCCCCCOc2cccc3c2C(=O)N(C2CCC(=O)NC2=O)C3=O)cc1` (centres unmarked) [Compound 118, 4-[[5-([[4-(2-[[3-amino-6-(5-fluoro-2-hydroxyphenyl)pyridazin-4-yl]oxy]ethyl)phenyl]methyl]amino)pentyl]oxy]-2-(2,6-dioxopiperidin-3-yl)isoindole-1,3-dione;formic acid salt], at HiBiT-BRM, the “BRM HiBit Degradation Maximum (%)” value was “B (“B” indicates maximum degradation ≥50%)” and the DC50 is greater than 100 nM. On HiBit-BRG1, the DC50 was greater than 1000 nM and the Dmax is less than 50%.

Turning to `Cc1ncsc1-c1ccc(CNC(=O)[C@@H]2C[C@@H](O)CN2C(=O)[C@@H](NC(=O)CCCCCCCCCNC(=O)c2ccc(CCOc3cc(-c4ccccc4O)nnc3N)cc2)C(C)C)cc1` [Compound 170, (2S,4R)-1-((10-(4-(2-((3-amino-6-(2-hydroxyphenyl)pyridazin-4-yl)oxy)ethyl)benzamido)decanoyl)-L-valyl)-4-hydroxy-N-(4-(4-methylthiazol-5-yl)benzyl)pyrrolidine-2-carboxamide], on HiBiT-BRM, the “BRM HiBit Degradation Maximum (%)” value is listed as “C (“C” indicates maximum degradation <50%)” and the DC50 is greater than 1000 nM. Besides, on HiBit-BRG1, the DC50 is greater than 1000 nM and the Dmax is less than 50%.

Consider `Cc1ncsc1-c1ccc([C@H](C)NC(=O)[C@@H]2C[C@@H](O)CN2C(=O)[C@@H](NC(=O)CCN2CCC3(CCN(CCC(=O)NCc4ccc(CCOc5cc(-c6ccccc6O)nnc5N)cc4)CC3)CC2)C(C)(C)C)cc1` [Compound 250, (2S,4R)-1-((S)-2-(3-(9-(3-((4-(2-((3-amino-6-(2-hydroxyphenyl)pyridazin-4-yl)oxy)ethyl)benzyl)amino)-3-oxopropyl)-3,9-diazaspiro[5.5]undecan-3-yl)propanamido)-3,3-dimethylbutanoyl)-4-hydroxy-N-((S)-1-(4-(4-methylthiazol-5-yl)phenyl)ethyl)pyrrolidine-2-carboxamide], for which, at HiBiT-BRM, the “BRM HiBit Degradation Maximum (%)” value is “B (“B” indicates maximum degradation ≥50%)” and the DC50 is greater than 1000 nM. Also, on HiBit-BRG1, the DC50 is greater than 1000 nM and the Dmax is less than 50%.

Turning to `Cc1ncsc1-c1ccc(CNC(=O)[C@@H]2C[C@@H](O)CN2C(=O)[C@@H](NC(=O)CCN2CC3(C2)CN(CC(=O)NCc2ccc(CCOc4cc(-c5ccccc5O)nnc4N)cc2)C3)C(C)(C)C)cc1` [Compound 196, (2S,4R)-1-((S)-2-(3-(6-(2-((4-(2-((3-amino-6-(2-hydroxyphenyl)pyridazin-4-yl)oxy)ethyl)benzyl)amino)-2-oxoethyl)-2,6-diazaspiro[3.3]heptan-2-yl)propanamido)-3,3-dimethylbutanoyl)-4-hydroxy-N-(4-(4-methylthiazol-5-yl)benzyl)pyrrolidine-2-carboxamide], at HiBiT-BRM, the “BRM HiBit Degradation Maximum (%)” value is listed as “C (“C” indicates maximum degradation <50%)” and the DC50 was greater than 1000 nM. Besides, at HiBit-BRG1, the DC50 was greater than 1000 nM and the Dmax is less than 50%.

With `Cc1ncsc1-c1ccc([C@H](C)NC(=O)[C@@H]2C[C@@H](O)CN2C(=O)[C@@H](NC(=O)CCCCCCCCC(=O)NCc2ccc(CCOc3cc(-c4ccccc4O)nnc3N)cc2)C(C)(C)C)cc1` [Compound 257, N1-(4-(2-((3-amino-6-(2-hydroxyphenyl)pyridazin-4-yl)oxy)ethyl)benzyl)-N10-((S)-1-((2S,4R)-4-hydroxy-2-(((S)-1-(4-(4-methylthiazol-5-yl)phenyl)ethyl)carbamoyl)pyrrolidin-1-yl)-3,3-dimethyl-1-oxobutan-2-yl)decanediamide], at HiBiT-BRM, the “BRM HiBit Degradation Maximum (%)” value was “A (“A” indicates maximum degradation ≥75%)” and the DC50 was greater than 10 nM. On HiBit-BRG1, the DC50 was greater than 1000 nM and the Dmax was less than 50%.

`Nc1nnc(-c2ccccc2O)cc1OCCc1ccc(CNCCCNc2cccc3c2C(=O)N(C2CCC(=O)NC2=O)C3=O)cc1` (centres unmarked) [Compound 108, 4-[[3-([[4-(2-[[3-amino-6-(2-hydroxyphenyl)pyridazin-4-yl]oxy]ethyl)phenyl]methyl]amino)propyl]amino]-2-(2,6-dioxopiperidin-3-yl)isoindole-1,3-dione, formic acid salt]: at HiBiT-BRM, the “BRM HiBit Degradation Maximum (%)” value is “B (“B” indicates maximum degradation ≥50%)” and the DC50 was greater than 10 nM. Further, on HiBit-BRG1, the DC50 was greater than 1000 nM and the Dmax was greater than 50%.

Consider `Cc1ncsc1-c1ccc(CNC(=O)[C@@H]2C[C@@H](O)CN2C(=O)[C@@H](NC(=O)CCCC(=O)NCc2ccc(CCOc3cc(-c4ccccc4O)nnc3N)cc2)C(C)(C)C)cc1` [Compound 34], for which, on HiBiT-BRM, the “BRM HiBit Degradation Maximum (%)” value is “B (“B” indicates maximum degradation ≥50%)” and the DC50 was greater than 1000 nM. On HiBit-BRG1, the DC50 was greater than 1000 nM and the Dmax is less than 50%.

On to `Cc1ncsc1-c1ccc(CNC(=O)[C@@H]2C[C@@H](O)CN2C(=O)[C@@H](NC(=O)CN2CCC(OC3CCN(CCC(=O)NCc4ccc(CCOc5cc(-c6ccccc6O)nnc5N)cc4)CC3)CC2)C(C)(C)C)cc1` [Compound 244, (2S,4R)-1-((S)-2-(2-(4-((1-(3-((4-(2-((3-amino-6-(2-hydroxyphenyl)pyridazin-4-yl)oxy)ethyl)benzyl)amino)-3-oxopropyl)piperidin-4-yl)oxy)piperidin-1-yl)acetamido)-3,3-dimethylbutanoyl)-4-hydroxy-N-(4-(4-methylthiazol-5-yl)benzyl)pyrrolidine-2-carboxamide], for which, at HiBiT-BRM, the “BRM HiBit Degradation Maximum (%)” value is reported as “A (“A” indicates maximum degradation ≥75%)” and the DC50 was greater than 1000 nM. At HiBit-BRG1, the DC50 is greater than 1000 nM and the Dmax was less than 50%.

Regarding `Nc1nnc(-c2ccccc2O)cc1OCCc1ccc(C(=O)NCCCCC(=O)NCc2ccc(S(=O)(=O)Nc3cccc4c(Cl)c[nH]c34)cc2)cc1` [Compound 15, 4-(2-((3-amino-6-(2-hydroxyphenyl)pyridazin-4-yl)oxy)ethyl)-N-(5-((4-(N-(3-chloro-1H-indol-7-yl)sulfamoyl)benzyl)amino)-5-oxopentyl)benzamide], on HiBiT-BRM, the “BRM HiBit Degradation Maximum (%)” value is “C (“C” indicates maximum degradation <50%)” and the DC50 was greater than 1000 nM. At HiBit-BRG1, the DC50 is greater than 1000 nM and the Dmax was less than 50%.

Consider `Nc1nnc(-c2ccccc2O)cc1OCCc1ccc(CNC(=O)CCCCOc2cccc3c2C(=O)N(C2CCC(=O)NC2=O)C3)cc1` (centres unmarked) [Compound 152, N-(4-(2-((3-amino-6-(2-hydroxyphenyl)pyridazin-4-yl)oxy)ethyl)benzyl)-5-((2-(2,6-dioxopiperidin-3-yl)-3-oxoisoindolin-4-yl)oxy)pentanamide], for which, at HiBiT-BRM, the “BRM HiBit Degradation Maximum (%)” value is recorded as “A (“A” indicates maximum degradation ≥75%)” and the DC50 was greater than 100 nM. At HiBit-BRG1, the DC50 is greater than 1000 nM and the Dmax is less than 50%.

Regarding `Nc1nnc(-c2ccccc2O)cc1OCCc1ccc(CNC(=O)CCNc2cccc3nnn(C4CCC(=O)NC4=O)c(=O)c23)cc1` (centres unmarked) [Compound 111, N-(4-(2-((3-amino-6-(2-hydroxyphenyl)pyridazin-4-yl)oxy)ethyl)benzyl)-3-((3-(2,6-dioxopiperidin-3-yl)-4-oxo-3,4-dihydrobenzo[d][1,2,3]triazin-5-yl)amino)propanamide], at HiBiT-BRM, the “BRM HiBit Degradation Maximum (%)” value was “C (“C” indicates maximum degradation <50%)” and the DC50 is greater than 1000 nM. Moreover, at HiBit-BRG1, the DC50 was greater than 1000 nM and the Dmax is less than 50%.
